Measured values: US9255100B2 (BAYER INTELLECTUAL PROPERTY GMBH, priority 2010, dated 2016)
pIC50: −log10 of the molar value.

Target: T1, N-terminally GST-tagged human full length recombinant Mps-1 kinase (Homo sapiens, UniProt P33981)
T1 construct: N-terminally GST-tagged human full length recombinant Mps-1 kinase; purchased Invitrogen, Karslruhe, Germany PV4071
T1 sequence (P33981 1-857): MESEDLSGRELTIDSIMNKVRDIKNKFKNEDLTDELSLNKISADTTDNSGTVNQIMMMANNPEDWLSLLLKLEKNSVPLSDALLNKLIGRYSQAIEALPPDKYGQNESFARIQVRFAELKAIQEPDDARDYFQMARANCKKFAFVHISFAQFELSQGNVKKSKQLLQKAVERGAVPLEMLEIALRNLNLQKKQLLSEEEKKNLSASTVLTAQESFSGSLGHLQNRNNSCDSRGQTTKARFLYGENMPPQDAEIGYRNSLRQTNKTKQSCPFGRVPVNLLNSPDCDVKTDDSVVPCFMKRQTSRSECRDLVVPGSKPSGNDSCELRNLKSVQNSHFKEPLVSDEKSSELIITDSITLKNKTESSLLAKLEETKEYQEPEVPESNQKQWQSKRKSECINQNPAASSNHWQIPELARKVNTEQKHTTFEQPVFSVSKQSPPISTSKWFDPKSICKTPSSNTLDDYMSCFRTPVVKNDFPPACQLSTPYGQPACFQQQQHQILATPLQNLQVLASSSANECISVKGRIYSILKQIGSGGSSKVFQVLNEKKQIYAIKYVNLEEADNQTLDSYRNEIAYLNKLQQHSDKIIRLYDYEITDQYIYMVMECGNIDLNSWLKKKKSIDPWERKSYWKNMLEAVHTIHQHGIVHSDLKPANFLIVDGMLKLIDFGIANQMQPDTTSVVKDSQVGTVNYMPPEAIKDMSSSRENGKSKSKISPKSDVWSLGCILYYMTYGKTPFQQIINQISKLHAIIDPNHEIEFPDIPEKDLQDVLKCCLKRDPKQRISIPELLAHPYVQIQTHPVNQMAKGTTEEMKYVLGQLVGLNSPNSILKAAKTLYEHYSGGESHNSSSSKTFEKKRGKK
Assay: Mps-1 kinase assay (TR-FRET)
Assay type: biochemical
Settings: 10 μM ATP, 1 μM peptide substrate, 60 min at 22° C., read-out: Mps1 IC50
Summary of the method: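 GST-Mps-1 (full length, N-term tag) ~1 nM final, linear-range adjusted per lot; biotinylated peptide substrate. Detection: Eu-anti-pSer/Thr donor → SA-XLent acceptor TR-FRET, 1 h, 22° C. Inhibition of kinase activity.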

Row | SMILES | pIC50
1 | Cc1cc(-c2cnc3c(NCC4CC[S+]([O-])CC4)cc(Sc4ccccc4)nn23)ccc1C(=O)NC1CC1 (stereo not drawn) [Example 303B, N-cyclopropyl-2-methyl-4-[8-({[(trans)-1-oxidotetrahydro-2H-thiopyran-4-yl]methyl}amino)-6-(phenylsulfanyl)imidazo[1,2-b]pyridazin-3-yl]benzamide] | 9.70

Same assay, conditions: Mps1 IC50 [nM], 10 μM ATP, 1 μM peptide substrate, 60 min at 22° C.

Row | SMILES | IC50 [nM]
2 | Cc1cc(-c2cnc3c(NCC4CCSCC4)cc(Oc4ccc(F)cc4)nn23)ccc1C(=O)NC1CC1 [Example 290, N-cyclopropyl-4-{6-(4-fluorophenoxy)-8-[(tetrahydro-2H-thiopyran-4-ylmethyl)amino]imidazo[1,2-b]pyridazin-3-yl}-2-methylbenzamide] | 0.3
3 | Cc1cc(-c2cnc3c(NCC4CCSCC4)cc(Oc4ccc(Cl)c(F)c4)nn23)ccc1C(=O)NC1CC1 [Example 291, 4-{6-(4-chloro-3-fluorophenoxy)-8-[(tetrahydro-2H-thiopyran-4-ylmethyl)amino]imidazo[1,2-b]pyridazin-3-yl}-N-cyclopropyl-2-methylbenzamide] | 0.6
4 | Cc1cc(-c2cnc3c(NCC4CCSCC4)cc(Oc4ccc(Cl)cc4)nn23)ccc1C(=O)NC1CC1 [Example 292, 4-{6-(4-chlorophenoxy)-8-[(tetrahydro-2H-thiopyran-4-ylmethyl)amino]imidazo[1,2-b]pyridazin-3-yl}-N-cyclopropyl-2-methylbenzamide] | 0.5
5 | Cc1cc(-c2cnc3c(NCC4CCSCC4)cc(Oc4cccc(F)c4F)nn23)ccc1C(=O)NC1CC1 [Example 293, N-cyclopropyl-4-{6-(2,3-difluorophenoxy)-8-[(tetrahydro-2H-thiopyran-4-ylmethyl)amino]imidazo[1,2-b]pyridazin-3-yl}-2-methylbenzamide] | 0.4
6 | Cc1cc(-c2cnc3c(NCC4CCS(=O)(=O)CC4)cc(Oc4ccc(Cl)cc4)nn23)ccc1C(=O)NC1CC1 [Example 294A, 4-[6-(4-chlorophenoxy)-8-{[(1,1-dioxidotetrahydro-2H-thiopyran-4-yl)methyl]amino}imidazo[1,2-b]pyridazin-3-yl]-N-cyclopropyl-2-methylbenzamide] | 0.3
7 | Cc1cc(-c2cnc3c(NCC4CCS(=O)(=O)CC4)cc(Oc4ccc(F)cc4)nn23)ccc1C(=O)NC1CC1 [Example 295A, N-cyclopropyl-4-[8-{[(1,1-dioxidotetrahydro-2H-thiopyran-4-yl)methyl]amino}-6-(4-fluorophenoxy)imidazo[1,2-b]pyridazin-3-yl]-2-methylbenzamide] | 0.4
8 | Cc1cc(-c2cnc3c(NCC4CCS(=O)(=O)CC4)cc(Oc4cccnc4)nn23)ccc1C(=O)NC1CC1 [Example 296A, N-cyclopropyl-4-[8-{[(1,1-dioxidotetrahydro-2H-thiopyran-4-yl)methyl]amino}-6-(pyridin-3-yloxy)imidazo[1,2-b]pyridazin-3-yl]-2-methylbenzamide] | 0.5
9 | Cc1cc(-c2cnc3c(NC[C@H]4CC[S@@+]([O-])CC4)cc(Oc4cccnc4)nn23)ccc1C(=O)NC1CC1 [Example 296B, N-cyclopropyl-2-methyl-4-[8-({[(cis)-1-oxidotetrahydro-2H-thiopyran-4-yl]methyl}amino)-6-(pyridin-3-yloxy)imidazo[1,2-b]pyridazin-3-yl]benzamide] | 0.5
10 | Cc1cc(-c2cnc3c(NC[C@H]4CC[S@+]([O-])CC4)cc(Oc4cccnc4)nn23)ccc1C(=O)NC1CC1 [Example 296C, N-cyclopropyl-2-methyl-4-[8-({[(trans)-1-oxidotetrahydro-2H-thiopyran-4-yl]methyl}amino)-6-(pyridin-3-yloxy)imidazo[1,2-b]pyridazin-3-yl]benzamide] | 0.2
11 | Cc1cc(-c2cnc3c(NCC4CCS(=O)(=O)CC4)cc(Oc4ccccc4F)nn23)ccc1C(=O)NC1CC1 [Example 297, N-cyclopropyl-4-[8-{[(1,1-dioxidotetrahydro-2H-thiopyran-4-yl)methyl]amino}-6-(2-fluorophenoxy)imidazo[1,2-b]pyridazin-3-yl]-2-methylbenzamide] | 0.1
12 | Cc1cc(-c2cnc3c(NCC4CCS(=O)(=O)CC4)cc(Oc4cccc(F)c4)nn23)ccc1C(=O)NC1CC1 [Example 298A, N-cyclopropyl-4-[8-{[(1,1-dioxidotetrahydro-2H-thiopyran-4-yl)methyl]amino}-6-(3-fluorophenoxy)imidazo[1,2-b]pyridazin-3-yl]-2-methylbenzamide] | < 0.1
13 | Cc1cc(-c2cnc3c(NCC(C)(C)O)cc(-c4ccc(F)cc4CO)nn23)ccc1C(=O)NC1CC1 [Example 299, N-cyclopropyl-4-{6-[4-fluoro-2-(hydroxymethyl)phenyl]-8-[(2-hydroxy-2-methylpropyl)amino]imidazo[1,2-b]pyridazin-3-yl}-2-methylbenzamide] | 6.9
14 | Cc1cc(-c2cnc3c(NCC(C)(C)O)cc(Sc4ccc(F)c(F)c4)nn23)ccc1C(=O)NC1CC1 [Example 300, N-cyclopropyl-4-{6-[(3,4-difluorophenyl)sulfanyl]-8-[(2-hydroxy-2-methylpropyl)amino]imidazo[1,2-b]pyridazin-3-yl}-2-methylbenzamide] | 0.8
15 | Cc1cc(-c2cnc3c(NCC4CCS(=O)(=O)CC4)cc(Sc4cccc(F)c4)nn23)ccc1C(=O)NC1CC1 [Example 301, N-cyclopropyl-4-(8-{[(1,1-dioxidotetrahydro-2H-thiopyran-4-yl)methyl]amino}-6-[(3-fluorophenyl)sulfanyl]imidazo[1,2-b]pyridazin-3-yl)-2-methylbenzamide] | 0.2
16 | Cc1cc(-c2cnc3c(NCC4CCS(=O)(=O)CC4)cc(Sc4ccccc4)nn23)ccc1C(=O)NC1CC1 [Example 302, N-cyclopropyl-4-[8-{[(1,1-dioxidotetrahydro-2H-thiopyran-4-yl)methyl]amino}-6-(phenylsulfanyl)imidazo[1,2-b]pyridazin-3-yl]-2-methylbenzamide] | 0.3
17 | Cc1cc(-c2cnc3c(NC[C@H]4CC[S@@+]([O-])CC4)cc(Sc4cccc(F)c4)nn23)ccc1C(=O)NC1CC1 [Example 304A, N-cyclopropyl-4-(6-[(3-fluorophenyl)sulfanyl]-8-({[(cis)-1-oxidotetrahydro-2H-thiopyran-4-yl]methyl}amino)imidazo[1,2-b]pyridazin-3-yl)-2-methylbenzamide] | < 0.1
18 | Cc1cc(-c2cnc3c(NC[C@H]4CC[S@+]([O-])CC4)cc(Sc4cccc(F)c4)nn23)ccc1C(=O)NC1CC1 [Example 304B, N-cyclopropyl-4-(6-[(3-fluorophenyl)sulfanyl]-8-({[(trans)-1-oxidotetrahydro-2H-thiopyran-4-yl]methyl}amino)imidazo[1,2-b]pyridazin-3-yl)-2-methylbenzamide] | 0.1
19 | Cc1cc(-c2cnc3c(NCC(C)(C)O)cc(Nc4ccc(F)cc4)nn23)ccc1C(=O)NC1CC1 [Example 305, N-cyclopropyl-4-{6-[(4-fluorophenyl)amino]-8-[(2-hydroxy-2-methylpropyl)amino]imidazo[1,2-b]pyridazin-3-yl}-2-methylbenzamide] | 0.6
20 | Cc1cc(-c2cnc3c(NCC(C)(C)O)cc(Nc4ccccc4)nn23)ccc1C(=O)NC1CC1 [Example 306, 4-{6-anilino-8-[(2-hydroxy-2-methylpropyl)amino]imidazo[1,2-b]pyridazin-3-yl}-N-cyclopropyl-2-methylbenzamide] | 0.6
